Assay results from PMC7756341, “Liposomal FRET Assay Identifies Potent Drug‐Like Inhibitors of the Ceramide Transport Protein (CERT)” (Chemistry (Weinheim an Der Bergstrasse, Germany), 2020).

Target: T1, CERT (Homo sapiens, UniProt Q9Y5P4)
T1 construct: made in house; host or cells: E. coli BL21 (DE3), pET-28a(+)
T1 sequence (Q9Y5P4 1-598 isoform Q9Y5P4-2): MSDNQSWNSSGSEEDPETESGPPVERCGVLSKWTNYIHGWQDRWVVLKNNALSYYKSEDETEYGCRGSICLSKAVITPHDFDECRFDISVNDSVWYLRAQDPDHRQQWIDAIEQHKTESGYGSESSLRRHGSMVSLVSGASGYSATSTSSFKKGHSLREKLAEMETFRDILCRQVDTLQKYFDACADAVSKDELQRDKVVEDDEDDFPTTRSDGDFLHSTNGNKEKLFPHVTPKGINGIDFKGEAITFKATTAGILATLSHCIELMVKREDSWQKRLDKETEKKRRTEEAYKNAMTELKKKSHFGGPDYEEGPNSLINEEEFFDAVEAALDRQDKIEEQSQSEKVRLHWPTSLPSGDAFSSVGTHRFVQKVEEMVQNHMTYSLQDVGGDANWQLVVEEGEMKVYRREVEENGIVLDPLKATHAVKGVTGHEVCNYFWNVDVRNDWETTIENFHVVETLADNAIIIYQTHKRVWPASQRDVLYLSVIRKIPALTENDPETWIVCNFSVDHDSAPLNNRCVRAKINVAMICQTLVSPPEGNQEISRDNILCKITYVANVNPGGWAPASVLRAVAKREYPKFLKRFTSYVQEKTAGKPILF
Assay: Liposomal FRET CERT transfer assay (NBD-Cer/NR-Cer), 96-well
Format: biochemical
Details: dose-response
Excerpt: 2. Assessment of CERT-transfer Activity
2.1 Reagents and materials
Egg phosphatidylcholine (PC) and egg phosphatidylethanolamine (PE) were purchased from Sigma. Fluorescence (nitrobenzoxadiazole (NBD), 7-Methoxycumarin-3-carboxylat (MCC), 9-Diethylamino-5-oxo-5H-benzo[a]phenoxazin-2-yl (NR)) labeled-ceramide, were chemically synthesized (section 5). (1R,3S) and (1R, 3R) -N-(3Hydroxy-1-hydroxymethyl-3-phenylpropyl)- dodecamide (HPA-12) were synthesized as previously described.
Two donor and acceptor liposomes were prepared one acts as donor liposome (NBD-Cer or MCC-Cer) and the other as acceptor liposome (NR-Cer or NBD-Cer). The donor and acceptor liposomes were mixed in proper percentage for establishing two fluorescence resonance energy transfer (FRET) systems (MCC/NBD-ceramide system, or NBD/ NR-ceramide system). The stock solutions of the phospholipids and the fluorescently-labeled ceramide were prepared by dissolving in a mixture of methanol:chloroform (1:1). The liposomes were prepared by mixing […] phosphatidylcholine, 333 µmol phosphatidylethanolamine, and […] fluorescently-labeled ceramide (4:1:1 molar ratio) in siliconized Eppendorf tubes. The mixture was dried under argon stream to yield a waxy lipid film. The obtained waxy residue was hydrated with Tris.HCl buffer (1mL, 2 mM, pH 7.4) to a final concentration of 2 mM and the resulting mixture was vortexed for 1 min. The lipid mixture was subjected to 6 freeze-thawing cycles with liquid nitrogen and shaking incubator at 37 °C. Afterwards, the lipid suspension was sonicated with a Cup-Horn sonicator for 20 sec, followed by vigorous shaking on vortex for 1 min. Finally, the lipid mixture was extruded with a mini extruder (Avanti polar lipids) by forcing the suspension through two polycarbonate filters with 100 nm pore size for 13 times to afford a solution of liposome type.
2.4 Development of high throughput screening CERT-assay (96-well plate format) The assay was performed in non-binding clear-bottom 96-well microplate (Greiner Bio-One). […] The plate was placed in the microplate reader (LABTECH) at 30°C with shaking. The fluorescence was measured from the bottom over 1h (number of cycles 35, delay 70 sec) with excitation filter 485 nm and emission filter 640 nm (for NBD-Cer/NR-ceramide FRET system) or excitation filter 347 nm and emission filter 536 nm (for Coumarin (MMC-Cer), NBD-ceramide (NBD-Cer) FRET system). The transfer efficiency was calculated using the formula: Ix = I0(À1-X)/I(À2-Y), where À1 is the average of the florescence of the control of liposome mixture in Tris.HCl buffer, X is the average of the fluorescence of the buffer alone, À2 is the fluorescence average of the assay mixture, Y is the fluorescence average of the CERT aliquot with […]

Compound | activity in the transfer assay
CC1=NN(c2ccc(C)c(C)c2)C(=O)/C1=N\Nc1cccc(-c2cccc(C(=O)O)c2)c1O [17C9, Eltrombopag] | weak dose‐response
O=C(NC1CCN(CCCCC2(C(=O)NCC(F)(F)F)c3ccccc3-c3ccccc32)CC1)c1ccccc1-c1ccc(C(F)(F)F)cc1 [8E8, lomitapide] | high activity
Cc1cc(C2=NOC(c3cc(Cl)cc(Cl)c3)(C(F)(F)F)C2)ccc1C(=O)NCC(=O)NCC(F)(F)F (stereo not shown) [20D5, Fluralaner] | high activity
CCCC(=O)OCOC(=O)C1=C(C)NC(C)=C(C(=O)OC)C1c1cccc(Cl)c1Cl (stereo not shown) [6B11, Clevidipine butyrate] | high activity
